Assay results reported in patent publication US5070191A, “Demethylallosamidin and a process for production thereof” (Ajinomoto Co., Inc., priority 1989, dated 1991).

How the values were obtained:
[1] = test system: Mouse ascitic mammary cancer cells FM3A; experiment: Cytotoxicity, mouse ascitic mammary cancer cells FM3A; format: cell-based; details: 1 mg/ml, 37° C., 4 days
Protocol: (i) Mouse ascitic mammary cancer cells FM3A were inoculated in 1×10^5 /ml on Dulbecco modified MEM medium supplemented with 10% fetal calf serum and demethylallosamidin was added thereto in a concentration of 1 mg/ml followed by stationary culture at 37° C. for 4 days.

[2] = test system: Fusarium nivale ATCC 42308; experiment: Influence on growth of mold (length and branching degree of hyphae); format: cell-based; set-up: Length Hypha: unit not given here; details: after 32 hours; for Branching Degree of Hypha (mean value of branch intervals of hyphae) / Length Hypha: 28° C.
Protocol: Demethylallosamidin was added to the culture medium of mold to examine its influence. Firstly, Fusarium nivale ATCC 42308 was precultured in PDA medium (manufactured by Nissui Pharmaceutical Co., Ltd.) to form spores. The spores were suspended in physiological saline. The suspension was filtered through cotton to give a spore suspension free of hyphae. A fixed amount of the resulting suspension was inoculated on a medium supplemented with demethylallosamidin (0.80 μg/ml, 0.16 μg/ml) and on demethylallosamidin-free medium (control), respectively. […] The observation was performed as follows: sampling was made over definite periods of time, microscopic photographs were taken and the length and branching degree of hyphae were determined. The branching degree of hyphae is a mean value of branch intervals of hyphae. In any case, incubation was carried out at 28° C. at 120 strokes/min by charging 1 ml each of medium (0.03% of yeast extract, 0.03% of malt extract; both manufactured by Daigo Nutrient Co., Ltd.) and 0.1% of glucose in a testing tube with a cotton stopper (diameter of 11 mm).

[3] = target: T1, fungi-derived chitinase (chitinase solution from baker's yeast) (Saccharomyces cerevisiae, UniProt P29029); experiment: Determination of chitinase inhibitory activity (3H-chitin hydrolysis); format: biochemical; details: for Inhibition Rate (%): 37° C., 3 hours, pH 3.0
T1 construct: The cells were removed by centrifugation (0° C., 10 mins., 12,000 g); The resulting supernatant was concentrated to 200 ml by ultrafiltration; host or cells: baker's yeast; concentrated, acid-treated supernatant of shaken cells
T1 sequence (P29029 21-562): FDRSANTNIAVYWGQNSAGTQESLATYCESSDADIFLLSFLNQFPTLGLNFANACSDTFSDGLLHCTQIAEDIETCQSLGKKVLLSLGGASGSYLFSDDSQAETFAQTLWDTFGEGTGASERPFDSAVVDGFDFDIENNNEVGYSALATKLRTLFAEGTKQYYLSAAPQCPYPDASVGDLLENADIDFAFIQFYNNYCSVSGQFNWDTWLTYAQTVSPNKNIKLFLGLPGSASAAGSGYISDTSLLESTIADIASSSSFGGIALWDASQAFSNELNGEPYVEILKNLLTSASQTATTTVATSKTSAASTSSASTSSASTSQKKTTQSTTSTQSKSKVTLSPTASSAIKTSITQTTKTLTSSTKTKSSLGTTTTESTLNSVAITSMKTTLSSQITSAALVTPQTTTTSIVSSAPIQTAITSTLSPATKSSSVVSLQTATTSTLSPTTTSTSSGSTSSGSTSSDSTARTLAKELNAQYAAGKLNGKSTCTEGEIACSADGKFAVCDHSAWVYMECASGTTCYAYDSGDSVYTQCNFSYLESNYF
Protocol: A Sakaguchi flask of 2 liters was charged with 1 liter of 25 mM MES (Nakarai Chemical Co., Ltd.) buffer containing 0.1% β-mercaptoethanoland 200 g of baker's yeast (Kanegafuchi Chemical Industry Co., Ltd.) followed by shaking at 30° C. at 120 spm for 2 hours. The cells were removed by centrifugation (0° C., 10 mins., 12,000 g). The resulting supernatant was concentrated to 200 ml by ultrafiltration (TOYO ULTRAFILTER UP-20). After concentration, 400 ml of citrate buffer (0.15 M citric acid+0.15 M sodium citrate, pH 3.0) was added to the concentrate. After the formed precipitates were removed by centrifugation (0° C., 10 mins., 12,000 g), the resulting supernatant was concentrated to 40 ml by ultrafiltration. The concentrate was stored at 4° C. and used as the chitinase solution in the assay.
10 ml of 10% acetic acid was slowly added to 0.5 g of chitosan (PFANSTIEHL LABORATORIES INC.), then the mixture was kneaded in a mortar to become gel-like. After standing at room temperature overnight, 45 ml of methanol was added while thoroughly stirring. The mixture was filtered through a gauze and 0.75 ml of ^3 H-labeled acetic anhydride (NET 018A10 ACETIC ANHYDRIDE 5 mCi) was added to the filtrate obtained. The formed agar-like chitin was homogenized with a homogenizer, collected on a glass filter (Whatmann GF/B) and suspended in 10 ml of citrate buffer (pH 3.0). This chitin suspension (2.3 μCi/ml chitin suspension) was used as a substrate for assay.
In an Epfendorf tube, 90 μl of the chitinase solution and 10 μl of the ^3 H-chitin suspension were charged and reacted at 37° C. for 3 hours. In this case, 90 μl of citrate buffer (pH 3.0) was used in place of 90 μl of the enzyme solution as a control sample and reacted in a similar manner. After the reaction, 100 μl of 10% trichloroacetic acid was added and the reaction solution was passed through a glass filter (Whatmann GF/B). After 10 ml of scintillant solution was added to the obtained filtrate, its radioactivity (dpm) was determined. The difference between the determined value and the control sample indicated chitinase activity. The scintillant solution was prepared by dissolving 4 g of Ominiflour (Daiichi Chemical) in 500 ml of toluene and adding 500 ml of Triton X-100 (Nakarai Chemical Co., Ltd.) to the solution.
When allosamidin and demethylallosamidin were added, both were dissolved in 0.1 N acetic acid solution and 10 μl each of the solutions having the respective concentrations was added to the reaction system described above. Also, 10 μl of 0.1 N acetic acid was added to the blank and to the system in which no inhibitor was added, followed by the reaction described above.
The inhibitory activity was calculated according to the equation below: [formula] wherein: A=chitinase activity (dpm) when no inhibitor was added.
B=chitinase activity (dmp) when the inhibitor was added.
In any of the measurements, three series of runs were used and a mean value was determined.

[4] = test system: Human leukemia cells K562; experiment: Cytotoxicity, human leukemia cells K562; format: cell-based; details: 1 mg/ml, 37° C., 4 days
Protocol: (ii) Human leukemia cells K562 were inoculated in 1×10^5 /ml on FRMI 1640 medium supplemented with 10% fetal calf serum and demethylallosamidin was added thereto in a concentration of 1 mg/ml followed by stationary culture at 37° C. for 4 days.

[5] = target: T1, fungi-derived chitinase (chitinase solution from baker's yeast); details: background statement; cited from earlier work
[6] = test system: endo-type chitinase derived from insects; details: background statement; cited from earlier work
[7] = addition of demethylallosamidin

CNC1=NC2C(O)C(OC3OC(CO)C(OC4OC(CO)C(O)C(O)C4NC(C)=O)C(O)C3NC(C)=O)C(CO)C2O1 (single isomer, unassigned) [Demethylallosamidin, demethylallosamidin]
growth inhibition (microscopic observation) [1]: no growth inhibition | growth inhibition (microscopic observation) ([1]; listed as demethylallosamidin): no growth inhibition was noted at all | Branching Degree of Hypha (mean value of branch intervals of hyphae) ([2]; 0.16 μg/ml): 72.8 μm | Length Hypha ([2]; 0.16 μg/ml): 364 | Branching Degree of Hypha (mean value of branch intervals of hyphae) ([2]; 0.80 μg/ml): 74.2 μm | Length Hypha ([2]; 0.80 μg/ml): 576 | branching degree of hyphae (in words) [2, 7]: decreased | length of hyphae (in words) [2, 7]: obviously increased | inhibitory activity against fungi-derived chitinase (in words) [3]: potent inhibitory activity | Inhibition Rate (%) ([3]; amount added 0.05 μg): 61.1% | Inhibition Rate (%) ([3]; amount added 0.1 μg): 73.9% | Inhibition Rate (%) ([3]; amount added 0.2 μg): 75.2% | Inhibition Rate (%) ([3]; amount added 0.4 μg): 84.6% | Inhibition Rate (%) ([3]; amount added 0.8 μg): 87.1% | inhibitory activity per unit weight relative to allosamidin ([3]; fungi-derived chitinase, versus allosamidin): ≤ 100 times | growth inhibition (microscopic observation) [4]: no growth inhibition | growth inhibition (microscopic observation) ([4]; listed as demethylallosamidin): no growth inhibition was noted at all

CC(=O)N[C@H]1[C@H](O[C@H]2[C@@H](O)[C@@H](NC(C)=O)[C@H](O[C@H]3[C@H](O)[C@H]4N=C(N(C)C)O[C@H]4[C@@H]3CO)O[C@@H]2CO)O[C@H](CO)[C@@H](O)[C@H]1O [Allosamidin, allosamidin]
inhibitory activity against chitinase derived from fungi (in words, background) [5]: weakly inhibitory activity | Inhibition Rate (%) ([3]; amount added 1 μg): 36.0% | Inhibition Rate (%) ([3]; amount added 2 μg): 47.6% | Inhibition Rate (%) ([3]; amount added 4 μg): 58.5% | inhibition of endo-type chitinase derived from insects (in words) [6]: strongly inhibits
